Laboratory results published in PMC10931833, “Simultaneous Purification of Human Interferon Alpha-2b and Serum Albumin Using Bioprivileged Fluorinated Ionic Liquid-Based Aqueous Biphasic Systems” (International Journal of Molecular Sciences, 2024).
Blank lines part the entries; values can stand above or below the compound they belong to.

Tests used:
BSA [1] = molecular target: T1, BSA (Bos taurus, UniProt P02769); test: DSC thermal unfolding of BSA in water and aqueous solutions of ABS phase-forming components; type: physicochemical, bovine; conditions: for Tm / ΔG / ΔHcal / ΔHcal/ΔHvH / ΔHvH / ΔS: 1.0 mg/mL BSA
T1 construct: purchased Millipore Sigma-Aldrich
Protocol: Differential scanning calorimetry (DSC) measurements were performed with Nano DSC equipment, as detailed in Section 3, and used to determine the melting temperature (T m ) and enthalpy ( Δ H) of protein unfolding. DSC analyzes changes in the structure and stability of proteins as thermal transitions at the nanoscale. Using DSC to measure heat capacity as a function of the temperature of a well-studied protein such as BSA provides keen insights into folding and unfolding processes, as well as factors affecting stability. Due to the volume and concentration requirements of the DSC technique, and the constraints in available quantities of IFN- α 2b the DSC experiments on the ABS phase-forming components’ effect on the structural properties of proteins were attained only for BSA.
The T m of BSA, which corresponds to the thermal unfolding transition midpoint, was measured in the absence and presence of the ABS phase-forming components at increasing concentrations (see Figure 1 and Table 2).

BSA [2] = molecular target: T1, BSA; test: CD thermal unfolding (Tm) of BSA; type: physicochemical, bovine; conditions: 1.0 mg/ml BSA, 200 mM component aqueous solution
Text: The thermal stability assessed by far-UV CD is solely determined through the thermal decay of the alpha-helical structure.

IFN-α2b [3] = molecular target: T2, IFN-α2b (Homo sapiens, UniProt P01563); test: Far-UV CD secondary structure of IFN-α2b (CONTIN-LL deconvolution); type: physicochemical; conditions: 0.125 mg/mL IFN-α2b, 200 mM component, 25 °C
T2 construct: single non-glycosylated polypeptide chain with a molecular weight of 19 kDa, comprising 165 amino acids; purchased Millipore Sigma-Aldrich SRP4595-100UG; host or cells: E. coli
Text: Circular dichroism (CD) is widely used to study the secondary structures of proteins, peptides and nucleic acids, because it requires a low concentration sample, is a nondestructive method, allows studying a wide range of variables (temperature, pH, etc.), and provides information on the effect of added ligands on protein folding and interactions.
Circular dichroism (CD) spectra were collected in a 10 mm quartz cuvette and a Chirascan spectropolarimeter (Applied Photophysics, UK) at room temperature. All CD spectra were recorded in the far-UV range of 190 to 260 nm at scan rates of 50 nm/min, with 4 accumulations, and a response time of 3 s; CD spectra were collected. For each CD experiment, two distinct duplicates were acquired and combined. […] Spectral deconvolution was carried out with DichroWeb using the CONTIN-LL deconvolution algorithm with the SMP180 reference set.

IFN-α2b [4] = molecular target: T2, IFN-α2b; test: CD thermal unfolding (Tm) of IFN-α2b; type: physicochemical; conditions: 0.125 mg/ml IFN-α2b, 200 mM component aqueous solution
Protocol: The same analyses attained for 208 nm and 192 nm are illustrated in Figures S5 and S6 in the Supplementary Materials. The corresponding T m values are estimated by fitting to a sigmoid with four parameters (one-way ANOVA, significance level of 0.05) and summarized in Table S2 in the Supplementary Materials. The CD T m of 0.125 mg/mL native IFN- α 2b is in good agreement with what was previously reported. […] The estimated T m values are summarized in Table S2 in the Supplementary Materials. The same analysis is attained for 208 nm and 192 nm, as depicted in Figures S5 and S6 in the Supplementary Materials. All the CD T m results are summarized in Table S2 in the Supplementary Materials. The thermal stability assessed by far-UV CD is solely determined through the thermal decay of the alpha-helical structure.
The same analysis was attained for 208 nm and 192 nm as illustrated in Figure S13 in the Supplementary Materials. The corresponding T m values are depicted in Table 5, and were estimated by fitting a sigmoid with four parameters (one-way ANOVA, with a significance level of 0.05).

[5] = parameters: method as in earlier work; conditions: aqueous solution at 25 °C; ITC ([C2C1Im][C4F9SO3]) or conductometry ([N1112(OH)][C4F9SO3]); ref 3 (supplement; main text ref 71); cited from earlier work

T1 sequence (P02769 25-607): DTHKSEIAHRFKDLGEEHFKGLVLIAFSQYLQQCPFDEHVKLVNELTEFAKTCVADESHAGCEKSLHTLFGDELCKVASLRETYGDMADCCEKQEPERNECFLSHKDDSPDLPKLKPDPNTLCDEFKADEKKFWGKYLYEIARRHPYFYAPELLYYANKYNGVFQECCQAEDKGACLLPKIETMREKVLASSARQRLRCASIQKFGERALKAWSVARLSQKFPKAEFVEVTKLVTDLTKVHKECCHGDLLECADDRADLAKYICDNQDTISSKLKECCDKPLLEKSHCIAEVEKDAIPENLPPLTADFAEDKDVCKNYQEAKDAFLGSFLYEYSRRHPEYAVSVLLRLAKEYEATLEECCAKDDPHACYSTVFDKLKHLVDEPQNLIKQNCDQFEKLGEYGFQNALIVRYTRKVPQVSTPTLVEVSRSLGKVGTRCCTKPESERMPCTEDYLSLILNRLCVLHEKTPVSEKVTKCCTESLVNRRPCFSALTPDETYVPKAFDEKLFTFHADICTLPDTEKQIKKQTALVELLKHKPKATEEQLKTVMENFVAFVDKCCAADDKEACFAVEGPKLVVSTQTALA
T2 sequence (P01563 24-188): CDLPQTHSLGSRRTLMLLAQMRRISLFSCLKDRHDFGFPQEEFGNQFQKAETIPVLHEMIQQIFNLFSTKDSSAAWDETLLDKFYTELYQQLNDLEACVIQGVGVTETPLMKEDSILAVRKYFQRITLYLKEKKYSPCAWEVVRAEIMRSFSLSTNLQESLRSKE

Tm (BSA [1]; 0.1 mM component): 74.54 °C
ΔG (BSA [1]; 0.1 mM component): 17.42 kcal/mol
ΔHcal (BSA [1]; 0.1 mM component): 122.6 kcal/mol
ΔHcal/ΔHvH (BSA [1]; 0.1 mM component): 0.946
ΔHvH (BSA [1]; 0.1 mM component): 129.6 kcal/mol
ΔS (BSA [1]; 0.1 mM component): 1.476 KJ/(mol.K)
Tm (BSA [1]; 1 mM component): 75.31 °C
ΔG (BSA [1]; 1 mM component): 14.67 kcal/mol
ΔHcal (BSA [1]; 1 mM component): 100.9 kcal/mol
ΔHcal/ΔHvH (BSA [1]; 1 mM component): 0.987
ΔHvH (BSA [1]; 1 mM component): 102.2 kcal/mol
ΔS (BSA [1]; 1 mM component): 1.210 KJ/(mol.K)
Tm (BSA [1]; 5 mM component): 81.43 °C
ΔG (BSA [1]; 5 mM component): 27.34 kcal/mol
ΔHcal (BSA [1]; 5 mM component): 171.4 kcal/mol
ΔHcal/ΔHvH (BSA [1]; 5 mM component): 1.069
ΔHvH (BSA [1]; 5 mM component): 160.3 kcal/mol
ΔS (BSA [1]; 5 mM component): 2.021 KJ/(mol.K)
Tm (BSA [1]; 10 mM component): 79.02 °C
ΔG (BSA [1]; 10 mM component): 19.07 kcal/mol
ΔHcal (BSA [1]; 10 mM component): 123.7 kcal/mol
ΔHcal/ΔHvH (BSA [1]; 10 mM component): 1.024
ΔHvH (BSA [1]; 10 mM component): 120.7 kcal/mol
ΔS (BSA [1]; 10 mM component): 1.468 KJ/(mol.K)
Tm (BSA [1]; 25 mM component): 72.02 °C
ΔG (BSA [1]; 25 mM component): 11.14 kcal/mol
ΔHcal (BSA [1]; 25 mM component): 80.45 kcal/mol
ΔHcal/ΔHvH (BSA [1]; 25 mM component): 0.992
ΔHvH (BSA [1]; 25 mM component): 81.09 kcal/mol
ΔS (BSA [1]; 25 mM component): 0.973 KJ/(mol.K)
Tm (BSA [1]; 55 mM component): 72.44 °C
ΔG (BSA [1]; 55 mM component): 12.4 kcal/mol
ΔHcal (BSA [1]; 55 mM component): 89.82 kcal/mol
ΔHcal/ΔHvH (BSA [1]; 55 mM component): 0.960
ΔHvH (BSA [1]; 55 mM component): 93.55 kcal/mol
ΔS (BSA [1]; 55 mM component): 1.086 KJ/(mol.K)
Tm (BSA [1]; 120 mM component): 76.32 °C
ΔG (BSA [1]; 120 mM component): 16.9 kcal/mol
ΔHcal (BSA [1]; 120 mM component): 114 kcal/mol
ΔHcal/ΔHvH (BSA [1]; 120 mM component): 0.969
ΔHvH (BSA [1]; 120 mM component): 117.7 kcal/mol
ΔS (BSA [1]; 120 mM component): 1.363 KJ/(mol.K)
effect on BSA Tm (DSC) (BSA [1]; tested concentration range vs water): maintained
Tm, Ellipticity 192 nm (BSA [2]): 75.050 °C
Tm, Ellipticity 208 nm (BSA [2]): 77.089 °C
Tm, Ellipticity 222 nm (BSA [2]): 74.833 °C
SMILES: CCCCn1cc[n+](C)c1.O=S(=O)([O-])C(F)(F)F [[C4C1Im][CF3SO3], 1-butyl-3-methylimidazolium trifluoromethanesulfonate]

SMILES: C[N+](C)(C)CCO.O=S(=O)([O-])C(F)(F)C(F)(F)C(F)(F)C(F)(F)F [[N1112(OH)][C4F9SO3], (2-hydroxyethyl)trimethylammonium perfluorobutane sulfonate]
Tm (BSA [1]; 0.1 mM component): 79.77 °C
ΔG (BSA [1]; 0.1 mM component): 22.44 kcal/mol
ΔHcal (BSA [1]; 0.1 mM component): 144.1 kcal/mol
ΔHcal/ΔHvH (BSA [1]; 0.1 mM component): 1.064
ΔHvH (BSA [1]; 0.1 mM component): 135.5 kcal/mol
ΔS (BSA [1]; 0.1 mM component): 1.708 KJ/(mol.K)
Tm (BSA [1]; 1 mM component): 80.57 °C
ΔG (BSA [1]; 1 mM component): 22.08 kcal/mol
ΔHcal (BSA [1]; 1 mM component): 138.2 kcal/mol
ΔHcal/ΔHvH (BSA [1]; 1 mM component): 0.921
ΔHvH (BSA [1]; 1 mM component): 150 kcal/mol
ΔS (BSA [1]; 1 mM component): 1.629 KJ/(mol.K)
Tm (BSA [1]; 5 mM component): 79.79 °C
ΔG (BSA [1]; 5 mM component): 26.41 kcal/mol
ΔHcal (BSA [1]; 5 mM component): 169.4 kcal/mol
ΔHcal/ΔHvH (BSA [1]; 5 mM component): 0.884
ΔHvH (BSA [1]; 5 mM component): 191.5 kcal/mol
ΔS (BSA [1]; 5 mM component): 2.007 KJ/(mol.K)
Tm (BSA [1]; 10 mM component): 82.78 °C
ΔG (BSA [1]; 10 mM component): 32.27 kcal/mol
ΔHcal (BSA [1]; 10 mM component): 197.9 kcal/mol
ΔHcal/ΔHvH (BSA [1]; 10 mM component): 1.156
ΔHvH (BSA [1]; 10 mM component): 171.3 kcal/mol
ΔS (BSA [1]; 10 mM component): 2.325 KJ/(mol.K)
Tm (BSA [1]; 25 mM component): 84.18 °C
ΔG (BSA [1]; 25 mM component): 30.31 kcal/mol
ΔHcal (BSA [1]; 25 mM component): 182 kcal/mol
ΔHcal/ΔHvH (BSA [1]; 25 mM component): 1.019
ΔHvH (BSA [1]; 25 mM component): 178.6 kcal/mol
ΔS (BSA [1]; 25 mM component): 2.128 KJ/(mol.K)
Tm (BSA [1]; 55 mM component): 86.11 °C
ΔG (BSA [1]; 55 mM component): 31.57 kcal/mol
ΔHcal (BSA [1]; 55 mM component): 184.7 kcal/mol
ΔHcal/ΔHvH (BSA [1]; 55 mM component): 0.929
ΔHvH (BSA [1]; 55 mM component): 198.7 kcal/mol
ΔS (BSA [1]; 55 mM component): 2.149 KJ/(mol.K)
Tm (BSA [1]; 200 mM component): 87.23 °C
ΔG (BSA [1]; 200 mM component): 28.51 kcal/mol
ΔHcal (BSA [1]; 200 mM component): 167.9 kcal/mol
ΔHcal/ΔHvH (BSA [1]; 200 mM component): 1.024
ΔHvH (BSA [1]; 200 mM component): 163.9 kcal/mol
ΔS (BSA [1]; 200 mM component): 1.956 KJ/(mol.K)
increase of BSA Tm (DSC) (BSA [1]; FIL at the highest concentration (120 mM) vs water): ~12 °C
Distorted Alpha Helix (IFN-α2b [3]): 0.148
Distorted Beta Sheet (IFN-α2b [3]): 0.064
Regular Alpha Helix (IFN-α2b [3]): 0.303
Regular Beta Sheet (IFN-α2b [3]): 0.071
Turns (IFN-α2b [3]): 0.188
Unordered (IFN-α2b [3]): 0.226
Tm, Ellipticity 192 nm (IFN-α2b [4]): 35.992 °C
Tm, Ellipticity 208 nm (IFN-α2b [4]): 61.234 °C
Tm, Ellipticity 222 nm (IFN-α2b [4]): 56.542 °C
Tm, Ellipticity 208 nm (BSA [2]): 92.409 °C
1st CAC [5]: 16.02 mM
2nd CAC [5]: 35.17 mM
3rd CAC [5]: 185.65 mM
